Data on three compounds can be found in US5693812A, “Polymorphic forms of an angiotensin II antagonist” (priority 1996, dated 1997).

Common to all, as to type: physicochemical
Data set [1] is described as follows: Heat of solution by solution calorimetry (Setaram C-80). The following applies: for ΔH solution 88% DMSO/12% H2O / ΔH solution DMSO at 30° C. / thermodynamic stability: potassium salt; for thermodynamic stability: from heats of solution and equilibrium solubility. As to the method:
The heat of solution of different crystal forms of 3-[2'-(N-benzoyl)sulfonamidobiphenyl-4-yl]methyl-5,7-dimethyl-2-ethyl-3H-imidazo[4,5-b]pyridine potassium salt were studied at 30° C. The heat of solution is a measure of the crystal lattice energy. […] Heats of solution had to be conducted in a solvent which dissolved the samples quickly without conversion to another polymorph. This really limited solvents which could be used. Dimethylsulfoxide was chosen for this reason. The heats of solution therefore have contributions from the lattice energy of the solid as well as heat of dilution of lattice water in dimethylsulfoxide. The calorimeter therefore produces a complex signal that has an exothermic contribution from the water and an additional contribution from the energy required to dissolve the crystal. […] Additional heats of solution were determined in a mixed solvent system of 88% dimethylsulfoxide and 12% water. This system was used to minimize the contribution of moisture to the heat of solution.
(§1) The crystal forms were characterized and evaluated by measuring the heats of solution or solution calorimetry, solubility data, x-ray powder diffraction patterns (XRPD), differential scanning calorimetry (DSC) and thermogravimetric analysis (TGA). Heats of solution at 30° C. were obtained in the Setaram C-80 calvet calorimeter with sample size of 7-13 mg dissolved into 5 ml of 88% DMSO 12% water for a final concentration of 1.4-2.6 mg/ml. XRPD patterns were recorded using an automated Siemens X-ray diffractometer with copper tube K alpha radiation. DSC and TGA were conducted using a Perkin Elmer series 7 instrument with a scan rate of 10° C./min over the temperature range of 30°-300° C.

A short description of data set [2]: Crystal form conversion in acetonitrile, with or without water (XRPD). Conditions: overnight, room temperature, listed as D, potassium salt. The source says: Since all of the crystal forms of 3-[2'-(N-benzoyl)sulfonamidobiphenyl-4-yl]methyl-5,7-dimethyl-2-ethyl-3H-imidazo[4,5-b]pyridine potassium salt were changed to a single crystal form "D", in water, the effect of a non-aqueous solvent was studied. 3-[2'-(N-benzoyl)sulfonamidobiphenyl-4-yl]methyl-5,7-dimethyl-2-ethyl-3H-imidazo[4,5-b]pyridine potassium salt, Forms "A", "B", "C", and "D" were stirred overnight at room temperature in acetonitrile. The remaining solids were filtered and then vacuum dried overnight at room temperature. The crystallinity of the solids was examined by XRPD spectroscopy.
All of the crystal forms were converted to a single crystal form ("D") in water, but in acetonitrile to two different crystal forms. […] To explore the role of water in the above experiments, 3-[2'-(N-benzoyl)sulfonamidobiphenyl-4-yl]methyl-5,7-dimethyl-2-ethyl-3H-imidazo[4,5-b]pyridine potassium salt, form "C" (an anhydrous crystal form) was this time suspended in acetonitrile with added water (water was 10% of the solid weight). As a control experiment Form "C" was also suspended in acetonitrile with no added water. The samples were shaken overnight at room temperature. The remaining solids were filtered and vacuum dried overnight at room temperature.

A short description of data set [3]: Equilibrium solubility in water at room temperature.
Data set [4] is described as follows: Crystal form stability in water (XRPD of remaining solid). The following applies: room temperature, potassium salt. An excerpt: [13) S. R. Byre. "Solid State Chemistry of Drugs." Academic Press, New York, 1982.] […] Recrystallization of any of these lots from solvents like ethanol, methanol, isopropanol, acetone, etc. gave new crystal forms different from the original forms. […] Solubility in water at room temperature was one of these techniques. The equilibrium solubility in water, at room temperature for five polymorphs (Forms "B", "C", "D", "F", and "G") were the same (Table 1). When the remaining solids were filtered, air dried or vacuum dried overnight at room temperature the XRPD patterns had changed from the initial patterns and all were exactly the same. These experiments indicate that all of the crystal forms converted in water at room temperature to a new crystalline form designated […].
The remaining form "I" solid after equilibrium solubility studies in water was removed by filtration and vacuum dried overnight at room temperature.
After the discovery of form "I", form "D" could no longer be isolated in our laboratory. TGA studies indicate that form "I" of 3-[2'-(N-benzoyl)sulfonamidobiphenyl-4-yl]methyl-5,7-dimethyl-2-ethyl-3H-imidazo[4,5-b]pyridine potassium salt is a dihydrate (FIG. 4).

A short description of data set [5]: Crystal form stability on heating.
Data set [6] can be described thus: Thermogravimetric analysis (TGA) weight loss / water content. Conditions: for % Weight Loss (Δ 30-150° C. by TGA) / hydration state: potassium salt; for hydration state: TGA; for TG of the potassium salt: dried product, Example 1 Step K. As to the method: as §1, with “30°-300° C. Utilizing these techniques the thermodynamic stability of the polymorphs of 3-[2'-(N-benzoyl)sulfonamidobiphenyl-4-yl]methyl-5,7-dimethyl-2-ethyl-3H-imidazo[4,5-b]pyridine potassium salt was determined.” for “30°-300° C.”
Step K: Preparation of 3-[2'-(N-Benzyl)sulfonamidobiphenyl-4-yl]methyl-5,7-dimethyl-2-ethyl-3H-imidazo[4,5-b]pyridine potassium salt--(Forms I, Id and W) [drawing 13] In a 72-L four-necked flask fitted with an overhead stirrer and a reflux condenser, 3-[2'-(N-benzyl)sulfonamidobiphenyl-4-yl]methyl-5,7-dimethyl-2-ethyl-3H-imidazo[4,5-b]pyridine 1 (5.04 kg, 9.6 mol), methanol (14.5 L) and water (2.5 L) are mixed. The slurry is warmed to 62° C. under a nitrogen atmosphere and 1.94M potassium hydroxide (4.96 L, 9.61 mol) is added to the slurry at 62° C. over 1.5 hours to provide a homogeneous solution. Isopropyl acetate (13.83 L) is then added at 65° C. and the mixture is warmed to 70° C. The homogeneous solution is filtered at 70° C. to remove any particulates that are present. The filtrate is diluted with isopropyl acetate (1.3 L), methanol (0.6 L) and water (0.1 L). […] The homogeneous mixture is cooled to 52° C. over 2 hours, whereupon potassium salt seed of form "I" (140 g) is added. This mixture becomes cloudy after 30 min. The mixture is aged for 10 hours at 52° C. The white slurry is cooled to 48° C. over 1 hour and stirred for 3 hours. Finally, the crystallization mixture is cooled to 0° C. at a rate of 1° C./12.5 min. and aged for 2 hours at 0° C. […] The solid is centrifuged at 0° C. and displacement-washed with a mixture of 2:2:1 cold (0° C.) isopropyl acetate/methanol/water (5.65 L) followed by isopropyl acetate (2.3 L). The solid is semi-dried to a TG of 10-15% by spin drying. The mother liquors contain 21 wt % of 3-[2'-(N-benzyl)sulfonamidobiphenyl-4-yl]methyl-5,7-dimethyl-2-ethyl-3H-imidazo[4,5-b]pyridine potassium salt. At this stage, the crystal form of the product is form "W". The product is powdered by passing through a screen (size=12). The solid is dried by passing dry nitrogen over the solid under vacuum at 22° C. for 5 hours to yield 4.55 kg of 3-[2'-(N-benzyl)sulfonamidobiphenyl-4-yl]methyl-5,7-dimethyl-2-ethyl-3H-imidazo[4,5-b]pyridine potassium salt as the form "I" with a purity of 99.7% (assay-HClO4 titration) and TG of 7-10%. Generally, the wet cake consists of residual water, methanol and isopropyl acetate. The K-salt is considered dry when <0.05% methanol and isopropyl acetate are detected by ^1 H NMR. The product is further powdered by passing the solid through a Quadro Comil (model 197s, screen size=1143 mm round impeller) to yield 4.5 kg. The product is dried to a TG of 4.6-5.5% by the passage of dry nitrogen over the solid under vacuum at 22° C. After 10 hours, 4.24 kg (78%) of the potassium salt as the form "I" is obtained with a TG of […] (99.7 wt % by titration). The water content can be monitored by TG analysis. The TG of the potassium salt of form "I" is 4.6-5.5%. The crystal form is monitored by X-ray analysis. When the potassium salt is over dried, the crystal form converts to form "Id" (TG<4.6%). […]

A short description of data set [7]: Hygroscopicity studies / exposure to humidity.

By solubility is commonly meant the concentration that dissolves in the medium under given conditions. A lower solubility goes with a poorly soluble substance. Usually solubility (thermodynamic) stands for the concentration in solution at equilibrium with solid.

Values joined by “and” are separate entries in the source; they are usually repeats but may differ in a detail not shown here. Equal entries are not always repeated. “Also recorded” adds a separate entry of the source. Structures can show the parent of a compound that is named as a salt.

`CCc1nc2c(C)cc(C)nc2n1Cc1ccc(-c2ccccc2S(=O)(=O)NC(=O)c2ccccc2)cc1` [Form D, 3-[2'-(N-benzoyl)sulfonamidobiphenyl-4-yl]methyl-5,7-dimethyl-2-ethyl-3H-imidazo[4,5-b]pyridine potassium salt]: in data set [1] (30° C., listed as D), the “ΔH solution 88% DMSO/12% H2O” value is on record as -16.33 ± 1.61 J/g and the “ΔH solution DMSO at 30° C.” value is reported as -1.36 ± 0.42 J/g. For the same compound, in data set [1] (listed as D), the thermodynamic stability result is listed as “metastable with respect to "I"”. Besides, in data set [2] (acetonitrile with added water), the “crystal form after shaking in acetonitrile-water” value is given as “the final crystal form was also "I"”. Moreover, the “crystal form after stirring/shaking in acetonitrile” value in data set [2] (acetonitrile, no added water) is “converted to a new crystal form ("I"); also recorded: changed to form "I"”. The same compound displayed a solubility in data set [3] (water, room temperature, Table I) of 10400 ± 700 µg/mL. Besides, the “crystal form after suspension in water” value in data set [4] (listed as D) is “converted to form "I"”. Moreover, the “crystal form after heating at 40° C. for 30 minutes” value in data set [5] (40° C., 30 minutes) is “did not change”. Moreover, the “crystal form after heating at 40° C. for 24 hours” value in data set [5] (40° C., 24 hours) was “crystallinity was reduced and XRPD pattern changed to a new form called "F"”. The “crystal form after heating up to 190° C.” value in data set [5] (up to 190° C., a few minutes) is reported as “produced a new crystalline anhydrous form designated "G"”. Moreover, in data set [6] (listed as D), the “% Weight Loss (Δ 30-150° C. by TGA)” value is 12-14% and the hydration state result is “hydrated”.
For the compound `CCc1nc2c(C)cc(C)nc2n1Cc1ccc(-c2ccccc2S(=O)(=O)NC(=O)c2ccccc2)cc1` [Form I, 3-[2'-(N-benzoyl)sulfonamidobiphenyl-4-yl]methyl-5,7-dimethyl-2-ethyl-3H-imidazo[4,5-b]pyridine potassium salt], in data set [1] (30° C., listed as I), the “ΔH solution 88% DMSO/12% H2O” value is on record as -25.68 ± 2.67 J/g and the “ΔH solution DMSO at 30° C.” value was -8.56 ± 1.64 J/g. Besides, in data set [1] (88% dimethylsulfoxide and 12% water), the “heat of solution, ranking” value is “most endothermic”. Besides, the “heat of solution, ranking” value in data set [1] (dimethylsulfoxide, 30° C.) is “most endothermic”. Moreover, the thermodynamic stability entry in data set [1] (listed as I) is listed as “thermodynamically stable crystal form”. For the same compound, the Solubility in water in data set [3] (room temperature, Table I, potassium salt) was determined as 8000 ± 400 µg/mL. In data set [3] (water, pH 7.8 printed for the other crystal forms), this compound displayed a thermodynamic solubility of 8000 µg/mL. Moreover, the “crystal form after suspension in water” value in data set [4] (listed as I) was “remained unchanged”. The “crystal form after heating to about 216° C.” value in data set [5] (about 216° C.) is recorded as “converted to form H”. In addition, the hygroscopicity result in data set [7] (relative humidities of 47% and above) is “non-hygroscopic”. For the same compound, in data set [6] (listed as I), the “% Weight Loss (Δ 30-150° C. by TGA)” value is 4.1-5.9%; the hydration state result is reported as “dihydrate”; the “TG of the potassium salt” value was 4.6-5.5% and 6.1% and 7-10%.
As for `CCc1nc2c(C)cc(C)nc2n1Cc1ccc(-c2ccccc2S(=O)(=O)NC(=O)c2ccccc2)cc1` [Form Id, 3-[2'-(N-benzoyl)sulfonamidobiphenyl-4-yl]methyl-5,7-dimethyl-2-ethyl-3H-imidazo[4,5-b]pyridine potassium salt], in data set [7] (ambient humidity), the “reconversion upon exposure to ambient humidity” value is “reconverted to form "I"”. Further, the “TG of the potassium salt” value in data set [6] (listed as Id) is below 4.6%.
